Results reported in PMC6261607, “Novel high–throughput myofibroblast assays identify agonists with therapeutic potential in pulmonary fibrosis that act via EP2 and EP4 receptors” (PLoS ONE, 2018).
Like-named read-outs stand apart in the source and are kept apart here.

Tests used:
[1] = test system: COL1 protein in NHLF cells; test: RapidFire MS/MS quantification of COL1 (IPQA), standard assay; assay type: cell-based, human
Procedure: Cell culture medium was removed and cells were lysed on ice by adding 5 μl / well of pre–cooled protein extraction buffer containing 10 mM Tris–HCl (pH 8.0), 6 M urea and 2 M thiourea and shaking on ice on a plate shaker at 600 rpm for 30 min.
Cell lysate was transferred to a 96–well polypropylene–PCR–plate. 15 μl / well denaturation buffer (6 M urea, 50 mM ammonium bicarbonate) and 2 μl / well of 50 mM TCEP were added and samples were denatured for 1 h at 60°C using the Veriti 96–well Fast Thermal Cycler System (Applied Biosystem) with a heated lid. Plates were allowed to cool to RT. Subsequently, 2 μl of 100 mM iodoacetamide were added per well to derivatize cysteine residues. Plates were then sealed and vortexed for 2 min in the dark and incubated for 30 min at 37°C in a thermal cycler with a heated lid. 90 μl of 50 mM ammonium bicarbonate pH 7.8 were added, followed by the addition of 10 μl of trypsin at 0.02 μg / ml. Samples were trypsin–digested overnight at 37°C in a thermal cycler with heated lid. […] Samples were desalted under vacuum using an Oasis HLB 96–well (30 μm particle size, 5 mg sorbent / well) reverse phase cartridge according to the manufacturer’s instructions and eluted with 170 μl of 90% acetonitrile, 0.1% formic acid. Samples were dried down with a flow of nitrogen at 40°C, left to cool to RT and re–suspended in 40 μl 5% acetonitrile, 0.1% formic acid on a plate shaker set to 1400 rpm for 5 min. Plates were centrifuged at 4,000 rpm for 10 min and 2 times 12 μl / well of supernatant were transferred into separate 96–well plates (Greiner Bio–One), sealed and stored at 4°C until analyzed by MS / MS.
Surrogate tryptic peptides were chosen for detection of COL1 (COL1A1), α–SMA (ACTA) and tubulin (TBA1A1) and crude synthetic peptides were purchased from Thermo Fischer. After several rounds of optimization following standard workflows, […] (COL1 / COL1A1), […] (α–SMA / ACTA) and […] LC–MS / MS analysis was performed on a RapidFire™ RF360 system (Agilent Technologies) coupled to an API 5500 (ABSciex) with positive ion electrospray ionization. […] Detection was performed using multiple reaction monitoring (MRM) mode to monitor parent⟶product ion transitions (m / z). […] The source parameters were curtain gas (CUR) nitrogen: 20 psig; collision gas (CAD): 7 psig; ion source gas 1: 50.0 psig; ion source gas 2: 50.0 psig; ion spray voltage (IS): 5500 V; turbo heater temperature (TEM): 600°C; entrance potential (EP): 10V. Peak areas for COL1A1 and ACTA were normalized by dividing by TBA1A peak area.

[2] = test system: normal human lung fibroblasts (NHLF); test: Phenotypic high-content assay (HCA) of TGF–β1–induced fibroblast–to–myofibroblast differentiation; assay type: cell-based; conditions: for IC50: 5 ng/ml TGF–β1 for 48 h, compound added with TGF–β1, mean ± SD, read-out: HCA IC50; for inhibition at 10 µM: read-out: Effect HCA at 10 µM [% inhibition], 10 µM compound, 5 ng/ml TGF–β1, 48 h
Outline: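 NHLF starved 24 h in serum-free basal medium with 0.1% BSA, then given compounds together with 5 ng/ml TGF-β1 for 48 h (0.6% DMSO). Methanol-fixed cells imaged for DAPI, α-SMA and FN; an SVM trained on ±TGF-β1 controls classified each cell, giving per-well % myofibroblast differentiation and nuclear counts.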

[3] = test system: normal human lung fibroblasts (NHLF); test: Impedance measurement of TGF–β1–induced myofibroblast transition (IPQA), standard assay; assay type: cell-based
Procedure: To measure dynamic cell shape and adhesion changes during fibrotic transdifferentiation, NHLF were seeded at a density of 20,000 cells per well in FGM–2 growth medium (Lonza) containing 100 units / ml of penicillin and 100 μg / ml of streptomycin into E–plates with continued impedance signal measurement (xCELLigence system, Roche Applied Science). After overnight growth, the medium was exchanged for FBM (Lonza) supplemented with 100 units / ml of penicillin and 100 μg / ml of streptomycin and 0.1% faf BSA and cells were starved for 32 h. Compound dilution series were added and myofibroblast transition was induced by adding TGF–β1 at a concentration of 5 ng / ml, followed by continued impedance sampling for up to 48 h. For data analysis, impedance raw traces were normalized to the time point of compound addition and the baseline response (DMSO, non–TGF–β1 treated cells) was subtracted. In some cases, impedance values at defined time points were used to generate concentration–response curves to determine compound potency and efficacy using GraphPad Prism software version 7 (GraphPad Software Inc).

[4] = Homo sapiens, Col1, 48 h, NHLF, 5 ng/ml TGF–β1, 48 h, representative experiment of supplementary figure, read-out: IC50 on COL1 (curve of a single experiment)
[5] = Homo sapiens, Col1, 48 h, NHLF, 5 ng/ml TGF–β1, lysed 48 h after TGF–β1, normalized to tubulin, mean ± SD, read-out: MS / MS COL1 IC50
[6] = Homo sapiens, Fibroblast, 48 h, NHLF
[7] = Fibroblast, 5 ng/ml TGF–β1, compound added with TGF–β1, impedance at t = 20 h post TGF–β1, mean ± SD, read-out: Impedance IC50
[8] = Homo sapiens, Col1, NHLF, 5 ng/ml TGF–β1, lysed 48 h after TGF–β1, normalized to tubulin, mean ± SD, read-out: MS / MS COL1 IC50
[9] = Homo sapiens, Fibroblast, 5 ng/ml TGF–β1, t = 20 h, representative experiment of supplementary figure, read-out: IC50 on impedance (curve of a single experiment)
[10] = NHLF, 5 ng/ml TGF–β1, lysed 48 h after TGF–β1, normalized to tubulin, mean ± SD, read-out: MS / MS COL1 IC50
[11] = Homo sapiens, Col1, NHLF, 5 ng/ml TGF–β1, 48 h, representative experiment of supplementary figure, read-out: IC50 on COL1 (curve of a single experiment)

Compound	IC50 [1, 5] [nM]	IC50 [2, 6] [nM]	IC50 [3, 7] [nM]	IC50 [1, 8] [nM]	IC50 [3, 9] [nM]	further results
CCCCC[C@H](O)/C=C/[C@H]1[C@H](O)CC(=O)[C@@H]1CCCCCCC(=O)O [Alprostadil]	5 ± 1.4	9	0.6 ± 0.1			IC50 [1, 4]: 3.2 nM; effect on basal COL1 expression ([1]; NHLF in the absence of TGF–β1): no effect; inhibition at 10 µM ([2]; Homo sapiens, Fibroblast): 97%; IC50 ([2]; NHLF): 8.6 ± 10 nM
C[C@]12CC[C@H](O)C[C@H]1CC[C@@H]1[C@@H]2C[C@@H](O)[C@]2(C)[C@@H](C3=CC(=O)OC3)CC[C@]12O [Digoxigenin]		220	250 ± 140	85 ± 8	154	concentrations that reduced cell surface area (CellMask Orange stain) ([2]; HCA, NHLF): ≥ 1250 nM; inhibition at 10 µM ([2]; Homo sapiens, Fibroblast): 100%
Cc1cccc(-c2[nH]c(CNc3ccccc3F)nc2-c2ccc3ncnn3c2)n1 [EW–7197]	111 ± 30	80 ± 30	47 ± 25			IC50 [1, 10]: 110 ± 30 nM; IC50 ([2]; NHLF): 82 ± 30 nM
CC(C)(C)c1ccc(CN(Cc2cccc(OCC(=O)O)c2)S(=O)(=O)c2cccnc2)cc1 [Evatanepag]		82 ± 110	6.7 ± 3	11	5	IC50 [1, 11]: 11.4 nM
O=C(CC1NCCCC1O)Cn1cnc2cc(Br)c(Cl)cc2c1=O (stereo not drawn) [Halofuginone]		690 ± 320	96 ± 10	27 ± 1	26	IC50 [1, 11]: 28 nM
O=C1CC[C@H](/C=C/[C@@H](O)Cc2ccccc2)N1CCCCCCc1nn[nH]n1 [Merck–19a]						IC50 [1, 10]: 17.7 ± 7 nM; IC50 ([3]; 5 ng/ml TGF–β1, compound added with TGF–β1, impedance at t = 20 h post TGF–β1, mean ± SD, read-out: Impedance IC50): 10.4 ± 1.1 nM
COC(=O)c1ccc2c(c1)NC(=O)/C2=C(\Nc1ccc(N(C)C(=O)CN2CCN(C)CC2)cc1)c1ccccc1 [Nintedanib]	1600	760 ± 130	300 ± 110			
CCCCC[C@H](O)/C=C/[C@H]1[C@H](O)CC(=O)[C@@H]1C/C=C\CCCC(=O)O [PGE2, prostaglandin E2]	4.9 ± 4.4		0.5 ± 0.1		0.4	IC50 [1, 4]: 1.8 nM
TGF–β1: transforming growth factor–β1, stimulus of myofibroblast differentiation						COL1 / tubulin ratio ([1]; NHLF, 5 ng/mL TGF-β1): 0.33 ± 0.07; EC50 of COL1 protein increase ([1]; NHLF, 48 hours, MS/MS (n = 8)): 0.05 ± 0.01 ng/mL; increase of COL1 protein ([1]; NHLF, at 48 hours): about 3 fold; EC50 of myofibroblast differentiation in HCA ([2]; NHLF, 48 h, mean ± SD (n = 7)): 0.02 ± 0.01 ng/mL; EC50 of impedance change ([3]; impedance at t = 20 h, mean ± SD, n = 8): 0.03 ± 0.01 ng/mL
